Measurements as given in paper PMC8359396, “Pharmacological validation of TDO as a target for Parkinson’s disease” (The Febs Journal, 2021).

Tests used:
[1] = molecular target: hTDO2‐overexpressing HEK‐293 cells (HEK‐hTDO) (Homo sapiens, UniProt P48775); test: Cell-based TDO assay, HEK‐hTDO cells (NFK Green)
[2] = molecular target: T1, GL‐261‐mTDO (Mus musculus, UniProt P48776); test: Cell-based TDO assay, GL‐261‐mTDO cells (pDMAB)
T1 construct: stably overexpressing the full‐length mouse TDO2 cDNA (GL‐261‐mTDO); expressed in transfected cells; host or cells: GL-261

[3] = molecular target: T2, human MDR1 P‐glycoprotein‐overexpressing MDCK cells (Homo sapiens, UniProt P08183); test: Bi‐directional transport assay, MDCK‐MDR1 monolayer; assay type: in vitro ADME; conditions: MDCK‐MDR1, with and without elacridar
T2 construct: host or cells: MDCK (canine kidney)
Method: To determine whether NTRC 3531‐0 could potentially enter the brain, a bi‐directional transport assay was performed with Madin‐Darby canine kidney (MDCK) cells overexpressing the human ABCB1 gene‐encoded MDR1 P‐glycoprotein (MDCK‐MDR1) at Cyprotex (Macclesfield, UK). MDCK‐MDR1 cells form a confluent monolayer in Transwell® cell culture plates (Corning) and express active MDR1 P‐glycoprotein at the apical side. The cell model is a surrogate model of the brain capillary endothelial cell layer that constitutes the blood–brain barrier. The transport of NTRC 3531‐0 from the apical (A) to the basolateral (B) side of the monolayer (P app, A to B), and from basolateral (B) to apical (A) (P app, B to A), was determined by measuring compound levels in the two compartments of the Transwell plates by liquid chromatography–tandem mass spectrometry (LC‐MS/MS) (Table 2). Transport assays were performed in the absence and presence of the P‐glycoprotein inhibitor elacridar.

[4] = test system: TDO activity in vivo; test: Trp and Kyn levels in plasma and brain of the PK studies (LC‐MS/MS); parameters: species or system male C57BL/6NCrl mice; conditions: mice
[5] = test system: rotenone‐induced mouse model of PD; test: Rotarod test in rotenone model; assay type: in vivo, male C57BL/6NCrl mice
Method: To investigate the effects of TDO inhibition, both compounds were orally administered once daily from day 7 after induction of the PD model (Fig. 5A). […] In this test, the time spent on an accelerating wheel was used to analyze motor function.
Food and water was provided ad libitum.
Motor function was assessed in the rotarod test by placing mice on an accelerating rod with speeds starting at 2 rpm and gradually increasing to 20 rpm. The latency to fall was recorded for a maximum of 300 s. Baseline motor function was tested seven days after surgery, and subsequently, motor function was tested every seven days until day 42.

[6] = test system: rotenone‐induced mouse model of PD; test: Intestinal transit of Evans blue in rotenone model; assay type: in vivo, male C57BL/6NCrl mice; conditions: P < 0.0001
Method: The dye was injected intragastrically, thirty minutes before the sacrifice of the mice. Intestinal transit was measured as the distance travelled by the dye from the pylorus to the most distal part of the colon.

[7] = test system: rotenone‐induced mouse model of PD; test: α‐Synuclein immunofluorescent staining of colon in rotenone model; assay type: in vivo, male C57BL/6NCrl mice; conditions: rotenone mice
Method: Parkinson’s disease is associated with the activation of glial cells in the enteric nervous system. Furthermore, aggregates of α‐synuclein have been observed in the enteric nervous system of PD patients. The expression of glial fibrillary acidic protein (GFAP), a marker of enteric glial cells, and of α‐synuclein was determined by immunofluorescent staining of fixed sections of the colons of the sacrificed mice.
Expression of GFAP and α‐synuclein in colonic tissue was determined using confocal microscopy (Leica SP8). The colons of the mice were embedded in paraffin. Sections of 15 µm were cut and incubated with 0.3% (v/v) H2O2 for 30 min, rehydrated and incubated with citrate buffer. Following blocking with serum, the sections were incubated overnight with rabbit anti‐α‐synuclein (Millipore, cat. no. AB5038; Burlington, MA, USA) at a dilution of 1 : 1000, or rabbit anti‐GFAP (Dako, cat. no. Z0334), 1 : 1000. After incubation with Alexa® 488‐labeled donkey anti‐rabbit secondary antibody, the slides were mounted using Vectashield® medium for fluorescence with DAPI (Vector Laboratories, cat. no. H‐1000; Burlingame, CA, USA).
Immunofluorescence images were made using a Keyence BZ‐9000 microscope. GFAP and α‐synuclein staining were quantified by calculation of the corrected total fluorescence (CTF) with the formula: integrated density – (area × mean fluorescence of background reading).

[8] = test system: any cell line used in this study; test: Cell viability assay (ATPlite 1Step); conditions: in parallel with the cell‐based NFK Green assays
Method: In parallel with the cell‐based NFK Green assays, the cytotoxicity of the compounds was determined in cell viability assays using ATPlite™ 1Step (PerkinElmer, Groningen, The Netherlands).

[9] = molecular target: SW48 (hTDO) (Homo sapiens, UniProt P48775); test: cell-based
[10] = test system: rotenone‐induced mouse model of PD; test: Colon length in rotenone model; conditions: rotenone mice, P < 0.05
[11] = molecular target: recombinant hIDO1 (Homo sapiens, UniProt P14902); test: IDO1 biochemical assay (NFK Green); conditions: for inhibition at 0.6 µM: read-out: inhibition hIDO1
[12] = molecular target: mouse TDO (mTDO) (Mus musculus, UniProt P48776); test: TDO biochemical assay (NFK Green), mTDO
[13] = In vivo pharmacokinetics and brain penetration; conditions: for bioavailability / AUC / Cmax / half-life / Kp / Kp at 5 days / Kp uu: male, C57BL/6NCrl, mouse, in vivo; for bioavailability: F (oral bioavailability); for bioavailability / AUC / Cmax / half-life / Kp uu / AUCbrain / F (oral bioavailability): mice; for AUC: AUCplasma; for Cmax: plasma; for half-life: t½; for Kp uu: Kpuu (unbound brain‐to‐plasma partition coefficient)
[14] = test system: rotenone‐induced mouse model of PD; test: Microglia (Iba1) volume and occupied space in substantia nigra, iDISCO; conditions: P < 0.05
[15] = po, 100 mg, 5‐day p.o., 100 mg∙kg^−1
[16] = po, 100 mg, single p.o., 100 mg∙kg^−1
[17] = two highest doses (25 and 50 mg·kg^−1)
[18] = po, 50 mg, 5‐day p.o., 50 mg∙kg^−1
[19] = po, 50 mg, single p.o., 50 mg∙kg^−1

hTDO2‐overexpressing HEK‐293 cells (HEK‐hTDO), sequence (P48775 whole entry): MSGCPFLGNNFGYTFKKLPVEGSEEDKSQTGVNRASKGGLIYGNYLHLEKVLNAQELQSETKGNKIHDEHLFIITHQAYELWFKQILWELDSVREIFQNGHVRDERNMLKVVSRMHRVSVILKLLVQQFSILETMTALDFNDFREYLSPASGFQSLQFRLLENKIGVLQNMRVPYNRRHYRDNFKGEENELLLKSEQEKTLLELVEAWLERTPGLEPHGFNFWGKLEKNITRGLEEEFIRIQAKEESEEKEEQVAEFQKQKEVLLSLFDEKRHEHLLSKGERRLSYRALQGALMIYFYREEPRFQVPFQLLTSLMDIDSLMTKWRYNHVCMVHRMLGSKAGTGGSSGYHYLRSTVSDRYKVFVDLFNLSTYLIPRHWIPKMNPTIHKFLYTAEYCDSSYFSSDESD
recombinant hIDO1, sequence (P14902 whole entry): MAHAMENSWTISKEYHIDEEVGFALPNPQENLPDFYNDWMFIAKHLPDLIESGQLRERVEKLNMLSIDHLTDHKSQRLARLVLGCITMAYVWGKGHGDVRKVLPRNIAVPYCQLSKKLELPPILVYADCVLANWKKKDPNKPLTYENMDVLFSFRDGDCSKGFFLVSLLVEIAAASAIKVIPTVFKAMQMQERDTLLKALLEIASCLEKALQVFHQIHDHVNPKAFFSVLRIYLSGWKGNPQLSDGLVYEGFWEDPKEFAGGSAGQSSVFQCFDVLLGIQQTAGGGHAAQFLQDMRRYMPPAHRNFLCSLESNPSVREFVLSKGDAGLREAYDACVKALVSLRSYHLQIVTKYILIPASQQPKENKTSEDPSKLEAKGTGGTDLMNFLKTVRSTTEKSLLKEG
T2 sequence (P08183 whole entry): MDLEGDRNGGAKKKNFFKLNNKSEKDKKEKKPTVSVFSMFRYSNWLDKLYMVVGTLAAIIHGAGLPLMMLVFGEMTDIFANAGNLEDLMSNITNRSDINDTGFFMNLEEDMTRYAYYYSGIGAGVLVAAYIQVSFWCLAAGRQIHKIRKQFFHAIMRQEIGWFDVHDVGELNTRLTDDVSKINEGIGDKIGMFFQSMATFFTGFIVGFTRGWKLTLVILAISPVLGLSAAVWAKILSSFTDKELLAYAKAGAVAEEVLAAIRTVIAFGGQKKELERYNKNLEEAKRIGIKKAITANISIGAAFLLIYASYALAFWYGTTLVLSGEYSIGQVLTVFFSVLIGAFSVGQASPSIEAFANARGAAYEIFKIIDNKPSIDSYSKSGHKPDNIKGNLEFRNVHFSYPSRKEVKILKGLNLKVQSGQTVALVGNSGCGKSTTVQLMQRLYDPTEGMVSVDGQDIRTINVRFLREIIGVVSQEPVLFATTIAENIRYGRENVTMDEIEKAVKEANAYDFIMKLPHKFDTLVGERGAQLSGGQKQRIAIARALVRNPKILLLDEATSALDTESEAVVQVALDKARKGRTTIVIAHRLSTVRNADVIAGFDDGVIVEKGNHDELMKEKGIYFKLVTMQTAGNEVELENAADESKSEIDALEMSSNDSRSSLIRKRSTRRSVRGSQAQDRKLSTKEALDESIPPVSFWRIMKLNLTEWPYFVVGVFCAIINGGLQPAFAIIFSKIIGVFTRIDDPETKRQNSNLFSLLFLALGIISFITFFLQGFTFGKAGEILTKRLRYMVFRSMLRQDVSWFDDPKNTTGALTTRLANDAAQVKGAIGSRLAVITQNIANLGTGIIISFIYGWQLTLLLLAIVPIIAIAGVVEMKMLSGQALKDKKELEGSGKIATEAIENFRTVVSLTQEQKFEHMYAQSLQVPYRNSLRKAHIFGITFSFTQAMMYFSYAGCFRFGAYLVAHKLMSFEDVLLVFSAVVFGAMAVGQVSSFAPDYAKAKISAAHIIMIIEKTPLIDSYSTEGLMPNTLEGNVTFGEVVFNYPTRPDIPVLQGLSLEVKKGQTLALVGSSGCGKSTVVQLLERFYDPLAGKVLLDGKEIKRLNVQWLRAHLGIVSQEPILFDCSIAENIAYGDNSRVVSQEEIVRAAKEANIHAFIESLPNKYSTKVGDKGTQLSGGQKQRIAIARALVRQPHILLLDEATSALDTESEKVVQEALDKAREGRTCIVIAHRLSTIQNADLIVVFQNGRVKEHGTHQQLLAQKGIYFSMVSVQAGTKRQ
SW48 (hTDO), sequence (P48775 whole entry): as the sequence (P48775 whole entry) above
mouse TDO (mTDO), sequence (P48776 whole entry): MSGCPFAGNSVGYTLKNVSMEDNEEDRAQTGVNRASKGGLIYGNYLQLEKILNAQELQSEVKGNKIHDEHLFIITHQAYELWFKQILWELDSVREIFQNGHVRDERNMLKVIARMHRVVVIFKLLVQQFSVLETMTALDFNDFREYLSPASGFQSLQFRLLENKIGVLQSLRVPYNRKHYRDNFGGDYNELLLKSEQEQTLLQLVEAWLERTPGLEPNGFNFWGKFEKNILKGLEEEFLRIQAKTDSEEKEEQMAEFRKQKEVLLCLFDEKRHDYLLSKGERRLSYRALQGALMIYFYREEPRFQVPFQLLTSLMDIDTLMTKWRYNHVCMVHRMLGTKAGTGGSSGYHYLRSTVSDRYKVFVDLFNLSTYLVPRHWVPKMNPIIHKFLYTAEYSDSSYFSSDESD
T1 sequence (P48776 whole entry): as above

C[C@@H](CO)NC(=O)c1ccc(-c2c[nH]c3cc(F)ccc23)cc1 [NTRC 3531‐0]
IC50 [1]: 816 nM | selectivity for hTDO over hIDO1, HEK‐293 cell‐based assays [1]: at least 25 times | IC90 ([1]; HEK293): 2500 nM | IC50 [2]: 214 nM | P‐glycoprotein substrate status [3]: could be a weak substrate of P‐glycoprotein | Kyn levels in plasma at early timepoints ([4]; single p.o. 100 mg·kg^−1, 0.25 and 0.5 h, no statistical significance): slightly decreased | Kyn levels in plasma, subsequent timepoints ([4]; single p.o. 100 mg·kg^−1, 1 and 2 h, P < 0.05): increased | concentration of Trp in plasma compared to vehicle ([4]; single p.o. 100 mg·kg^−1, 1 h P < 0.01, 2 h P < 0.0001, 7 h P < 0.01): increase | Kyn levels in brain ([4]; single p.o. 100 mg·kg^−1, 12 h P < 0.01, 24 h P < 0.05): increased | concentration of Trp in brain compared to vehicle ([4]; single p.o. 100 mg·kg^−1, P < 0.0001 at 1, 12 and 24 h): increase | motor function (rotarod) of rotenone‐treated mice ([5]; two highest doses p.o. once daily: 50 mg·kg^−1, P < 0.01 at day 35, 100 mg·kg^−1, P < 0.01): significantly improved motor function | intestinal transit of the PD mice ([6]; highest dose (100 mg·kg^−1)): improved the intestinal transit | expression of α‐synuclein in the enteric plexus ([7]; all doses: 25 mg·kg^−1, P < 0.05, 50 and 100 mg·kg^−1, P < 0.01): decrease in the expression of α‐synuclein | cytotoxicity [8]: not cytotoxic | IC50 [9]: 220 nM | colon length (rotenone‐induced intestinal inflammatory response) ([10]; highest dose (100 mg·kg^−1)): reduced the rotenone‐induced intestinal inflammatory response | activity on hIDO1 in the biochemical assay ([11]; highest tested concentration 31.6 µM): inactive | inhibition at 0.6 µM [11]: < 20% | IC50 [12]: 846 nM | bioavailability ([13]; 100 mg/kg, single p.o. 100 mg∙kg^−1 compared with single i.v. 10 mg∙kg^−1): 22% | AUC ([13]; iv, 10 mg, 10 mg∙kg^−1): 93.2 µM·h | Cmax ([13]; iv, 10 mg, 10 mg∙kg^−1): 56.5 µM | half-life ([13]; iv, 10 mg, 10 mg∙kg^−1): 0.903 h | Kp ([13]; po, 100 mg): 0.41 | Kp at 5 days ([13]; po, 100 mg): 0.37 | AUC [13, 15]: 210 µM·h | AUC [13, 16]: 207 µM·h | Cmax [13, 15]: 33.2 µM | Cmax [13, 16]: 37.5 µM | Kp uu [13, 15]: 0.067 | Kp uu [13, 16]: 0.074 | half-life [13, 15]: 3.13 h | half-life [13, 16]: 2.49 h | AUCbrain ([13]; 5‐day p.o., 100 mg∙kg^−1): 77.0 µM·h | F (oral bioavailability) ([13]; single p.o. 100 mg∙kg^−1 compared with single i.v. 10 mg∙kg^−1): 22.3% | AUCbrain ([13]; single p.o., 100 mg∙kg^−1): 84.5 µM·h | mean microglia volume in the SN of rotenone‐treated mice ([14]; highest dose (100 mg·kg^−1)): reduced the mean microglia volume

Fc1ccc2c(/C=C/c3nnn[nH]3)c[nH]c2c1 [LM10, reference compound]
inhibition at 0.6 µM ([1]; HEK293, read-out: inhibition HEK‐hTDO): 33% | inhibition at 0.6 µM ([2]; read-out: inhibition GL‐261‐mTDO): 42% | P‐glycoprotein substrate status [3]: not a P‐glycoprotein substrate | Trp levels in plasma and brain compared to vehicle ([4]; single p.o. 50 mg·kg^−1): no increase | Kyn levels in plasma ([4]; single p.o. 50 mg·kg^−1, 0.25 h P < 0.01, 0.5 h P < 0.05): only the initial decrease in Kyn levels was found to be significant | motor function (rotarod) of rotenone‐treated mice ([5]; highest dose p.o. once daily: 50 mg·kg^−1, P < 0.05): significantly improved motor function | intestinal transit of the PD mice [6, 17]: improved the intestinal transit | expression of α‐synuclein in the enteric plexus ([7]; all doses: 12.5 mg·kg^−1, P < 0.01, 25 and 50 mg·kg^−1, P < 0.001): decrease in the expression of α‐synuclein | cytotoxicity [8]: not cytotoxic | inhibition at 31.6 µM ([9]; SW48, read-out: inhibition in SW48 cells): 50% | colon length (rotenone‐induced intestinal inflammatory response) [10, 17]: reduced the rotenone‐induced intestinal inflammatory response | inhibition at 0.6 µM [11]: < 20% | IC50 [12]: 1070 nM | bioavailability ([13]; 50 mg/kg, single p.o. 50 mg∙kg^−1 compared with i.v. 10 mg∙kg^−1): 63% | AUC ([13]; iv, 10 mg, 10 mg∙kg^−1): 985 µM·h | Cmax ([13]; iv, 10 mg, 10 mg∙kg^−1): 427 µM | half-life ([13]; iv, 10 mg, 10 mg∙kg^−1): 1.77 h | Kp ([13]; po, 50 mg): 0.006 | Kp at 5 days ([13]; po, 50 mg): 0.01 | AUC [13, 18]: 2360 µM·h | AUC [13, 19]: 3100 µM·h | Cmax [13, 18]: 391 µM | Cmax [13, 19]: 688 µM | Kp uu [13, 18]: 0.02 | Kp uu [13, 19]: 0.012 | half-life [13, 18]: 2.35 h | half-life [13, 19]: 3.09 h | AUCbrain ([13]; 5‐day p.o., 50 mg∙kg^−1): 23.8 µM·h | F (oral bioavailability) ([13]; single p.o. 50 mg∙kg^−1 compared with i.v. 10 mg∙kg^−1): 63.1% | AUCbrain ([13]; single p.o., 50 mg∙kg^−1): 18.5 µM·h | mean microglia volume in the SN of rotenone‐treated mice ([14]; highest dose (50 mg·kg^−1)): reduced the mean microglia volume
